{
  "source": "patent US20260061037A1",
  "about": "“BACILLUS SPECIES STRAIN EXPRESSING SUPEROXIDE DISMUTASE, BACILLUS SPECIES STRAIN SPORE AND/OR SUPEROXIDE DISMUTASE, AND USE THEREOF FOR PREVENTING OR TREATING OF FIBROTIC DISEASE” (HLB GENEX, INC., priority 2022, published 2026)",
  "key": {"[1]": {"system": "nonalcoholic steatohepatitis (NASH) STAM™ animal model", "experiment": "Sirius red staining of liver (fibrosis area) in NASH STAM model", "format": "in vivo, C57BL/6J mice", "conditions": "PO, QD; GF423 1×10^7 CFU, GF103 10 U, telmisartan 10 mg/kg; vs disease control group", "procedure": "(§1) NASH was induced in all groups except the normal group of 8 mice as follows: On the second day after birth, the male mice were injected subcutaneously once with 200 μg streptozotocin (STZ, purchased from Sigma-Aldrich) solution. After the mice reached 4 weeks of age, a solid high-fat diet (HFD, 57 kcal % fat, purchased from CLEA Japan, Inc., Cat #HFD32) was placed on a metal lid on top of the cage so that the mice access it ad libitum, thereby inducing NASH\n(§2) The GF427-administered groups were administered once a day at five dose levels: 0.05×10^7 (lowest dose), 0.1×10^7 (low dose), 0.5×10^7 (middle dose), 1×10^7 (high dose), and 5×10^7 CFU (highest dose) per mouse. The GF423-administered group was administered once a day at a dose of 1×10^7 CFU per mouse. […] The animals were monitored daily for viability, clinical signs (lethargy, convulsion, respiratory distress), and behavior to observe whether there are any significant clinical signs of toxicity, coma, and death before and after administration of the test substance. […]\nFor quantitative analysis of fibrosis area, bright field images of the Sirius red-stained section were captured around the central vein using a digital camera (DFC295, purchased from Leica) at 200-fold magnification, and the positive areas in 5 fields/section were measured using ImageJ software (National Institute of Health, USA). […]"}, "[2]": {"system": "nonalcoholic steatohepatitis (NASH) STAM™ animal model", "experiment": "H&E staining of liver and NAFLD activity score in NASH STAM model", "format": "in vivo, C57BL/6J mice", "conditions": "PO, QD; GF423 1×10^7 CFU, GF103 10 U, telmisartan 10 mg/kg; vs disease control group", "procedure": "as §1\n(§3) The GF427-administered groups were administered once a day at five dose levels: 0.05×10^7 (lowest dose), 0.1×10^7 (low dose), 0.5×10^7 (middle dose), 1×10^7 (high dose), and 5×10^7 CFU (highest dose) per mouse. The GF423-administered group was administered once a day at a dose of 1×10^7 CFU per mouse. GF103 was administered once a day at a dose of 10 U per mouse. Telmisartan was administered once a day at a dose of 10 mg/kg. […] The animals were monitored daily for viability, clinical signs (lethargy, convulsion, respiratory distress), and behavior to observe whether there are any significant clinical signs of toxicity, coma, and death before and after administration of the test substance. […]\nThe paraffin block of liver tissue prepared in Example 7.3 was sectioned using a rotary microtome (purchased from Leica Microsystems). […] The tissue slides were subjected to H&E staining and evaluated by the investigator. […]"}, "[3]": {"system": "nonalcoholic steatohepatitis (NASH) STAM™ animal model", "format": "in vivo", "conditions": "PO, QD, GF423 1×10^7 CFU, telmisartan 10 mg/kg", "procedure": "C57BL/6J mice (14-day-pregnant female, 6-week-old male) (purchased from SLC, Japan) were maintained in a SPF facility with controlled temperature (23±3° C.), humidity (50±20%), lighting (12-hour artificial light/dark cycle; light cycle from 08:00 to 20:00), and air exchange.\nNASH was induced in all groups except the normal group of 8 mice as follows: On the second day after birth, the male mice were injected subcutaneously once with 200 μg streptozotocin (STZ, purchased from Sigma-Aldrich) solution. […]\nThe 10-week-old mice with induced NASH were randomized to 9 groups, each containing 8 mice, based on their body weight on the day before the start of treatment. […] The NASH model mice were stratified by the body weight, and the standard deviation (SD) was calculated to minimize the difference in mean body weight between the groups. […]\nas §2, with “dose)” for “dose) per mouse. The GF423-administered group was administered once a day at a dose of 1×10^7 CFU”"}, "[4]": {"system": "nonalcoholic steatohepatitis (NASH) STAM™ animal model", "format": "in vivo", "procedure": "as §1\nThe GF427-administered groups were administered once a day at five dose levels: 0.05×10^7 (lowest dose), 0.1×10^7 (low dose), 0.5×10^7 (middle dose), 1×10^7 (high dose), and 5×10^7 CFU (highest dose) per mouse. The GF423-administered group was administered once a day at a dose of 1×10^7 CFU per mouse. GF103 was administered once a day at a dose of 10 U per mouse. Telmisartan was administered once a day at a dose of 10 mg/kg. GF427, GF423, and GF103 were administered orally in the form of a vehicle at a dose of 100 μL, and telmisartan was administered orally in the form of being supplemented with reverse osmosis water (RO water) at a dose of 10 mL/kg. The normal and disease control groups were not subjected to any treatment before sacrifice, and were sacrificed at 13 weeks of age by exsanguination via direct cardiac puncture under isoflurane (purchased from Pfizer Inc.) anesthesia. The animals were monitored daily for viability, clinical signs (lethargy, convulsion, respiratory distress), and behavior to observe whether there are any significant clinical signs of toxicity, coma, and death before and after administration of the test substance. […] All animal care and experiments were conducted in accordance with laws and regulations related to animal welfare and management.\nAt sacrifice of the mice, the whole liver was collected and washed with cold saline. Photographs of the individual whole liver (parietal side and visceral side) were taken. Then, the liver weight was measured and the liver-to-body weight ratio was calculated. […]"}, "[5]": {"system": "nonalcoholic steatohepatitis (NASH) STAM™ animal model", "experiment": "Plasma ALT level in NASH STAM model", "format": "in vivo, C57BL/6J mice", "conditions": "PO, QD; GF423 1×10^7 CFU, GF103 10 U, telmisartan 10 mg/kg; vs disease control group", "procedure": "as §1, §3\nPlasma ALT level was measured using FUJI DRI-CHEM 7000 (purchased from Fujifilm Corporation). […]"}, "[6]": {"conditions": "PO, QD, weeks 10 to 13, GF423 1×10^7 CFU, GF103 10 U, telmisartan 10 mg/kg, vs disease control group"}},
  "data": [
    {"smiles": "CCCc1nc2c(C)cc(-c3nc4ccccc4n3C)cc2n1Cc1ccc(-c2ccccc2C(=O)O)cc1", "note": "[telmisartan, Telmisartan]", "values": [
      {"measurement": "fibrosis area (Sirius red-positive area)", "setting": "[1]", "result": "tended to decrease"},
      {"measurement": "NAFLD activity score (NAS)", "setting": "[2]", "result": "significant decrease in NAS"},
      {"measurement": "mean body weight during the treatment period", "setting": "[3]; weeks 10 to 13, GF427 0.05-5×10^7 CFU, GF103 10 U, vs disease control group", "result": "significantly lower than that of the disease control group from day 17 to day 21"},
      {"measurement": "mice found dead or euthanized before day 21", "setting": "[3]; 8 mice per group", "result": "two of the eight mice were euthanized"},
      {"measurement": "mean liver weight", "setting": "[4]; [6]", "result": "significant decrease in mean liver weight"},
      {"measurement": "mean liver-to-body weight ratio", "setting": "[4]; [6]", "result": "tended to show a decrease in mean liver-to-body weight ratio"},
      {"measurement": "daily mean body weight on the day of sacrifice", "setting": "[4]; mouse, in vivo, po", "result": "significant decrease in daily mean body weight on the day of sacrifice"},
      {"measurement": "plasma ALT level", "setting": "[5]", "result": "tended to show a decrease in plasma ALT level"}
    ]}
  ]
}
